Patent US8785452B2, “Anti-infective compounds” (priority 2008, dated 2014)

Test system: M. tuberculosis H37Rv-GFP
Assay: microbe, parasite or virus in culture
Assay type: cell-based, Mycobacterium tuberculosis
Settings: Mycobacterium tuberculosis, H37RV, Macrophage; confirmation, 20 uM; read-out: QIM Confirm % Inhibition 20 uM

SMILES | inhibition at 20 µM
NNC(=O)c1ccc(COc2cc(Cl)ccc2Cl)o1 [IPK 000 123 02] | 78.2%
NNC(=O)c1ccc(COc2ccc3c(c2)CCC3)o1 [IPK 000 123 30] | 64.1%
C/C(=N\NC(=O)c1cccc(F)c1)c1ccc2ccccc2c1 [IPK 000 104 07] | 80.2%
CC(C)c1ccc(/C=N/NC(=O)c2ccncc2)cc1 [IPK 000 043 32] | 102%
O=C(Nc1sc2c(c1C(=O)Nc1ccccc1)CCC2)c1ccccc1Br [IPK 000 073 29] | 86.6%
NNC(=O)c1ccc(COc2ccccc2Cl)o1 [IPK 000 123 03] | 72.1%
O=C1CSC(N/N=C/c2cc([N+](=O)[O-])ccc2O)N1 (centres unmarked) [IPK 000 109 00] | 8.2%
COc1cccc(C2Nc3ccc(C(=O)O)cc3C3C=CCC32)c1 (centres unmarked) [IPK 000 112 80] | 55.6%
COc1ccc(/C=N/NC(=O)c2ccncc2)cc1OC [IPK 000 042 95] | 98.8%
O=C(N/N=C/c1ccc([N+](=O)[O-])cc1)c1ccncc1 [IPK 000 041 48] | 88.4%
Cc1ccccc1/C=N/NC(=O)c1ccncc1 [IPK 000 043 29] | 100%
O=C(N/N=C/c1ccc(O)c([N+](=O)[O-])c1)c1ccncc1 [IPK 000 043 11] | 104%
Oc1ccccc1/N=C/c1cc(Br)cc(Br)c1O [IPK 000 044 41] | 29.9%
CCCOC(=O)C1=C(C)NC2=C(C(=O)CC(c3ccccc3)C2)C1c1cccc(O)c1 (centres unmarked) [IPK 000 085 99] | 49.5%
Oc1ccccc1/N=C/c1cc(Cl)cc(Cl)c1O [IPK 000 045 01] | 30.6%
COc1cc(CN(C)NC(=O)c2ccccn2)ccc1OC(=O)c1cccs1 [IPK 000 058 20] | 44.3%
CCC(C)c1ccc(NC(=O)c2ccc(Cl)c([N+](=O)[O-])c2)cc1 (centres unmarked) [IPK 000 048 71] | 70%
O=C(N/N=C1\C(=O)N(Cc2cccc3ccccc23)c2ccccc21)c1cc(-c2ccccc2)n[nH]1 [IPK 000 103 78] | 98%

Same assay, conditions: Mycobacterium tuberculosis, H37RV, Macrophage; primary screen, 20 μM; read-out: Primary QIM % Inhibition

SMILES | inhibition at 20 µM
NNC(=O)c1ccc(COc2cc(Cl)ccc2Cl)o1 [IPK 000 123 02] | 76.8%
NNC(=O)c1ccc(COc2ccc3c(c2)CCC3)o1 [IPK 000 123 30] | 77.2%
C/C(=N\NC(=O)c1cccc(F)c1)c1ccc2ccccc2c1 [IPK 000 104 07] | 82.3%
CC(C)c1ccc(/C=N/NC(=O)c2ccncc2)cc1 [IPK 000 043 32] | 60.5%
O=C(Nc1sc2c(c1C(=O)Nc1ccccc1)CCC2)c1ccccc1Br [IPK 000 073 29] | 78.6%
NNC(=O)c1ccc(COc2ccccc2Cl)o1 [IPK 000 123 03] | 78.3%
O=C1CSC(N/N=C/c2cc([N+](=O)[O-])ccc2O)N1 (centres unmarked) [IPK 000 109 00] | -7.8%
COc1cccc(C2Nc3ccc(C(=O)O)cc3C3C=CCC32)c1 (centres unmarked) [IPK 000 112 80] | 41.1%
COc1ccc(/C=N/NC(=O)c2ccncc2)cc1OC [IPK 000 042 95] | 64.7%
O=C(N/N=C/c1ccc([N+](=O)[O-])cc1)c1ccncc1 [IPK 000 041 48] | 84.5%
Cc1ccccc1/C=N/NC(=O)c1ccncc1 [IPK 000 043 29] | 111%
O=C(N/N=C/c1ccc(O)c([N+](=O)[O-])c1)c1ccncc1 [IPK 000 043 11] | 104%
Oc1ccccc1/N=C/c1cc(Br)cc(Br)c1O [IPK 000 044 41] | -120%
CCCOC(=O)C1=C(C)NC2=C(C(=O)CC(c3ccccc3)C2)C1c1cccc(O)c1 (centres unmarked) [IPK 000 085 99] | 37.1%
Oc1ccccc1/N=C/c1cc(Cl)cc(Cl)c1O [IPK 000 045 01] | -9.3%
COc1cc(CN(C)NC(=O)c2ccccn2)ccc1OC(=O)c1cccs1 [IPK 000 058 20] | 98.1%
CCC(C)c1ccc(NC(=O)c2ccc(Cl)c([N+](=O)[O-])c2)cc1 (centres unmarked) [IPK 000 048 71] | 62.1%
O=C(N/N=C1\C(=O)N(Cc2cccc3ccccc23)c2ccccc21)c1cc(-c2ccccc2)n[nH]1 [IPK 000 103 78] | 94.6%

Test system: Raw264.7 cells
Assay: not given
Settings: mouse, 5 days, 2 uM

SMILES | QIM Confirm CellNb 2 uM
COc1cccc(C2Nc3ccc(C(=O)O)cc3C3C=CCC32)c1 (centres unmarked) [IPK 000 112 80] | 98.3

Same assay, conditions: mouse, 5 days, 20 μM

SMILES | Primary QIM CellNb
NNC(=O)c1ccc(COc2cc(Cl)ccc2Cl)o1 [IPK 000 123 02] | 45.3
NNC(=O)c1ccc(COc2ccc3c(c2)CCC3)o1 [IPK 000 123 30] | 72.5
C/C(=N\NC(=O)c1cccc(F)c1)c1ccc2ccccc2c1 [IPK 000 104 07] | 65.1
CC(C)c1ccc(/C=N/NC(=O)c2ccncc2)cc1 [IPK 000 043 32] | 94.5
O=C(Nc1sc2c(c1C(=O)Nc1ccccc1)CCC2)c1ccccc1Br [IPK 000 073 29] | 55.1
NNC(=O)c1ccc(COc2ccccc2Cl)o1 [IPK 000 123 03] | 12.0
O=C1CSC(N/N=C/c2cc([N+](=O)[O-])ccc2O)N1 (centres unmarked) [IPK 000 109 00] | 23.8
COc1cccc(C2Nc3ccc(C(=O)O)cc3C3C=CCC32)c1 (centres unmarked) [IPK 000 112 80] | 10.7
COc1ccc(/C=N/NC(=O)c2ccncc2)cc1OC [IPK 000 042 95] | 106.0
O=C(N/N=C/c1ccc([N+](=O)[O-])cc1)c1ccncc1 [IPK 000 041 48] | 97.5
Cc1ccccc1/C=N/NC(=O)c1ccncc1 [IPK 000 043 29] | 105.2
O=C(N/N=C/c1ccc(O)c([N+](=O)[O-])c1)c1ccncc1 [IPK 000 043 11] | 99.5
Oc1ccccc1/N=C/c1cc(Br)cc(Br)c1O [IPK 000 044 41] | 34.0
CCCOC(=O)C1=C(C)NC2=C(C(=O)CC(c3ccccc3)C2)C1c1cccc(O)c1 (centres unmarked) [IPK 000 085 99] | 4.5
Oc1ccccc1/N=C/c1cc(Cl)cc(Cl)c1O [IPK 000 045 01] | 24.3
COc1cc(CN(C)NC(=O)c2ccccn2)ccc1OC(=O)c1cccs1 [IPK 000 058 20] | 66.6
CCC(C)c1ccc(NC(=O)c2ccc(Cl)c([N+](=O)[O-])c2)cc1 (centres unmarked) [IPK 000 048 71] | 22.6
O=C(N/N=C1\C(=O)N(Cc2cccc3ccccc23)c2ccccc21)c1cc(-c2ccccc2)n[nH]1 [IPK 000 103 78] | 3.5

Test system: Raw264.7 cells
Assay: Cell number (CellNb) from image analysis of the phenotypic cell-based assay
Settings: confirmation, 2 uM

SMILES | QIM Confirm CellNb 2 uM
COc1cccc(C2Nc3ccc(C(=O)O)cc3C3C=CCC32)c1 (centres unmarked) [IPK 000 112 80] | 189.0

Same assay, conditions: primary screen, 20 μM

SMILES | Primary QIM CellNb
NNC(=O)c1ccc(COc2cc(Cl)ccc2Cl)o1 [IPK 000 123 02] | 411.8
NNC(=O)c1ccc(COc2ccc3c(c2)CCC3)o1 [IPK 000 123 30] | 296.8
C/C(=N\NC(=O)c1cccc(F)c1)c1ccc2ccccc2c1 [IPK 000 104 07] | 243.5
CC(C)c1ccc(/C=N/NC(=O)c2ccncc2)cc1 [IPK 000 043 32] | 164.0
O=C(Nc1sc2c(c1C(=O)Nc1ccccc1)CCC2)c1ccccc1Br [IPK 000 073 29] | 230.5
NNC(=O)c1ccc(COc2ccccc2Cl)o1 [IPK 000 123 03] | 540.8
O=C1CSC(N/N=C/c2cc([N+](=O)[O-])ccc2O)N1 (centres unmarked) [IPK 000 109 00] | 87.8
COc1cccc(C2Nc3ccc(C(=O)O)cc3C3C=CCC32)c1 (centres unmarked) [IPK 000 112 80] | 152.0
COc1ccc(/C=N/NC(=O)c2ccncc2)cc1OC [IPK 000 042 95] | 143.5
O=C(N/N=C/c1ccc([N+](=O)[O-])cc1)c1ccncc1 [IPK 000 041 48] | 315.3
Cc1ccccc1/C=N/NC(=O)c1ccncc1 [IPK 000 043 29] | 415.5
O=C(N/N=C/c1ccc(O)c([N+](=O)[O-])c1)c1ccncc1 [IPK 000 043 11] | 366.0
Oc1ccccc1/N=C/c1cc(Br)cc(Br)c1O [IPK 000 044 41] | 126.8
CCCOC(=O)C1=C(C)NC2=C(C(=O)CC(c3ccccc3)C2)C1c1cccc(O)c1 (centres unmarked) [IPK 000 085 99] | 67.3
Oc1ccccc1/N=C/c1cc(Cl)cc(Cl)c1O [IPK 000 045 01] | 145.0
COc1cc(CN(C)NC(=O)c2ccccn2)ccc1OC(=O)c1cccs1 [IPK 000 058 20] | 344.8
CCC(C)c1ccc(NC(=O)c2ccc(Cl)c([N+](=O)[O-])c2)cc1 (centres unmarked) [IPK 000 048 71] | 56.5
O=C(N/N=C1\C(=O)N(Cc2cccc3ccccc23)c2ccccc21)c1cc(-c2ccccc2)n[nH]1 [IPK 000 103 78] | 263.5
